Test system: healthy donor PBMCs
Test: IFNγ ELISpot assay with peptide-stimulated healthy donor PBMCs
Assay type: cell-based, human
Protocol: FIG. 10A-D. In vitro validation of predicted neoAgs immunogenicity using ELISpot IFNy assay. A) Schematic of peptide pool, stimulation, and cell culture workflow for ELISpot assays. PBMCs were exposed with the individual peptides from the immunogenic pools in the presence of IL-7 for 3 d, followed by expansion of neoAg-specific T cells in the presence of IL-2. On day 13, expanded cells (10^5 cells per well) were plated onto 96-well ELISpot plate coated with an IFNγ antibody and re-stimulated with the respective peptide for 24 h. IFNy secreting cells were analyzed as spot-forming units (SFUs), and the inventors chose ≥15 SFU produced by peptide stimulated cells over DMSO control cells as an indicator of the peptide immunogenicity. B) Quantification of IFNγ-secreting cells (SFU) obtained from ELISpot assay of 12 neoAg-stimulated PBMCs. ConcA and DMSO served as positive and negative controls. […] C) Selection of 110 predicted MHC-I neoAgs from 3 different categories and percentage of immunogenicity in vitro validation. […] “Most Immunogenic” refers to neoAgs selected from the top 100 prediction list of Most Immunogenic MHC-I neoAgs. “Most recurrent” refers to neoAgs selected from the top 100 prediction list of Most Recurrent MHC-I neoAgs. “Others” refers neoAgs that were predicted to have low immunogenicity and no recurrency. A total of 44 MHC-II neoAgs from 2 different categories were tested. […] “Most Immunogenic” refers to neoAgs selected from the top 100 prediction list of Most Immunogenic MHC-II neoAgs. “Most recurrent” refers to neoAgs selected from the top 100 prediction list of Most Recurrent MHC-II neoAgs. D) pMHC-pentamer staining. Expanded Pan-T cells from the healthy human donor were isolated and stained with WDTC1 neoAg peptide/A*02:01 Pentameric complexes and PerCP-conjugated CD8 antibody followed by flow cytometry analysis. Pan T-cells from healthy human donor PBMC (HLA-A*02:01) were isolated using negative magnetic selection. Isolated Pan T cells were stimulated and expanded with Opto-antigen presenting beads conjugated with WDTC1 neoAg-peptide. Viable Pan-T cells were gated based on FSC and SSC scatter and SYTOX Blue dead cells staining after doublet-exclusion. Flow cytometric plots representing CD8 positive (x-axis) and PE-biotin-pMHC-pentamer positive (y-axis) cells; unstained, unstimulated, and WDTC1 Opto-antigen presenting beads stimulated cells (left to right). The percentage of live CD8+ cells and CD8/WDTC1 neoAg-loaded MHC pentamer positive cells are shown.
FIG. 19A-B. In vitro validation of the pooled predicted neoAgs immunogenicity using ELISpot IFNγ assay. A) Schematic of peptide pool, stimulation, and cell culture workflow for ELISpot assays. All 154 peptides were grouped into 15 peptide pools to stimulate PBMCs from 3 healthy human donors as shown in the illustrations. IFNy secreting cells were analyzed as spot-forming units (SFUs), indicative of immunogenicity. B) Quantification of IFNγ-secreting cells (SFU) obtained from ELISpot assay. Pools 2, 3, 5, 6, 9, and 12 produced at least 15 or higher SFU/10^5 cells from two different PBMCs. […] ConcA and DMSO served as positive and negative controls.
Healthy donor PBMCs were stimulated with 15 peptide pools (Supplementary Table 13) to expand the neoAg-specific CD8^+ T-cells followed by quantitative ELISpot assays (FIG. 19A) to measure immunogenicity. […] To ascertain the immunogenicity of individual peptides within each immunogenic pool. a deconvolution protocol (see Methods) was implemented (FIG. 10A). […] Three percent of MHC-I neoAgs not predicted to be highly immunogenic or recurrent (Others). 5% of the top 100 most immunogenic MHC-II predicted neoags, and 6% of the top 100 most recurrent MHC-II predicted neoags elicited an immunogenic response as assessed by ELISpot assays. Additionally. 18% of all of these elispot-reactive neoags were also predicted from the validation set (FIG. 9C). […]

[1] = IFNγ ELISpot, peptide-stimulated healthy donor PBMCs
[2] = IFNγ ELISpot, healthy donor PBMCs stimulated with peptide pools
[3] = IFNγ ELISpot, peptide-stimulated healthy donor PBMCs, peptides grouped in 15 pools
[4] = IFNγ ELISpot, only peptides marked Tested
[5] = IFNγ secretion in healthy donor PBMCs vs unexposed control cells
[6] = IFNγ ELISpot, peptides marked Tested

LAYWEKREAW [compound 177]
ELISPOT result (positive Yes/No) for peptides marked Tested [1]: No

LEVMLLNMGYRITGL
Elispot reactive [2]: yes

LKLCSKVSF [compound 132]
ELISPOT result (positive Yes/No) for peptides marked Tested [1]: No

LLNPVTMNK [compound 204]
Elispot reactive (IFNγ ELISpot, peptide tested): No

LLNPVTMNKA
Elispot reactive [3]: yes

LLNPVTMNKA [compound 206]
Elispot reactive (IFNγ ELISpot, peptide tested): No

LSAPEKITLF [compound 20]
Elispot reactive [4]: Yes
ELISPOT result (positive Yes/No) for peptides marked Tested [1]: Yes
Elispot reactive [5]: Yes

LSNVAPPAF
Elispot reactive [3]: yes

LSNVAPPAF [compound 168]
ELISPOT result (positive Yes/No) for peptides marked Tested [1]: Yes
Elispot reactive [5]: Yes

LSSPFREQM [compound 38]
Elispot reactive [4]: No
ELISPOT result (positive Yes/No) for peptides marked Tested [1]: No

LSSWFSPTV [compound 139]
ELISPOT result (positive Yes/No) for peptides marked Tested [1]: No

LTFCTNATI [compound 200]
Elispot reactive (IFNγ ELISpot, peptide tested): No

LTHPAHQPL [compound 124]
Elispot reactive [6]: No

MLLELSPAQL [compound 216]
Elispot reactive (IFNγ ELISpot, peptide tested): No

MLLRLNLRK [compound 29]
Elispot reactive [4]: Yes
ELISPOT result (positive Yes/No) for peptides marked Tested [1]: Yes
Elispot reactive [5]: Yes

MPCFTTALLL [compound 155]
ELISPOT result (positive Yes/No) for peptides marked Tested [1]: No

MSSIWGTMF [compound 140]
ELISPOT result (positive Yes/No) for peptides marked Tested [1]: No

MYFFWPCSL [compound 174]
ELISPOT result (positive Yes/No) for peptides marked Tested [1]: No

NMIQVLMSV [compound 49]
ELISPOT result for peptides marked Tested with ELISPOT (Yes/No) [1]: No

QKKLMLLRLNLRKMC
Elispot reactive [3]: yes

QTIEERLTW
Elispot reactive [3]: yes

QTIEERLTW [compound 156]
ELISPOT result (positive Yes/No) for peptides marked Tested [1]: Yes
Elispot reactive [5]: Yes

RAWRAGMPL [compound 153]
ELISPOT result (positive Yes/No) for peptides marked Tested [1]: No

RAWRRFPLL [compound 118]
Elispot reactive [6]: No

RFCPASCSGCY
Elispot reactive [3]: yes

RFCPASCSGCY [compound 170]
ELISPOT result (positive Yes/No) for peptides marked Tested [1]: No

RIPAVLRTEGEPLHT
Elispot reactive [3]: yes

RIPAVLRTEGEPLHT [compound 323]
Elispot reactive [6]: Yes
Elispot reactive [5]: Yes

RLDKGNFAGA
Elispot reactive [3]: yes

RLDKGNFAGA [compound 215]
Elispot reactive (IFNγ ELISpot, peptide tested): No

RLSCAPPPI
Elispot reactive [3]: yes

RLSCAPPPI [compound 138]
ELISPOT result (positive Yes/No) for peptides marked Tested [1]: Yes
Elispot reactive [5]: Yes

RLYKYDHNFV [compound 213]
Elispot reactive (IFNγ ELISpot, peptide tested): No

RLYVPLYSSK
Elispot reactive [3]: yes

RLYVPLYSSK [compound 37]
Elispot reactive [4]: Yes
ELISPOT result (positive Yes/No) for peptides marked Tested [1]: Yes
Elispot reactive [5]: Yes

RMASTSCAA [compound 161]
ELISPOT result (positive Yes/No) for peptides marked Tested [1]: No

RPACTCISM [compound 97]
ELISPOT result (positive Yes/No) for peptides marked Tested [1]: No
ELISPOT positive (only neoAgs marked Tested with ELISPOT): No

RPLCSSLGPL [compound 15]
Elispot reactive (IFNγ ELISpot, peptide tested): No

RPRMRAASPL [compound 13]
Elispot reactive (IFNγ ELISpot, peptide tested): No

RPVRGRGSL [compound 14]
Elispot reactive (IFNγ ELISpot, peptide tested): No

RQMLPTLSTL [compound 214]
Elispot reactive (IFNγ ELISpot, peptide tested): No

RRPLRSWTPR [compound 152]
ELISPOT result (positive Yes/No) for peptides marked Tested [1]: No

RSAFPSRSL [compound 126]
Elispot reactive [6]: No
Elispot reactive (IFNγ ELISpot, only peptides marked Elispot tested = Yes): No

RSVLEEMGL [compound 58]
ELISPOT result (positive Yes/No) for peptides marked Tested [1]: No
ELISPOT result for peptides marked Tested with ELISPOT (Yes/No) [1]: No

RTHPYSPKK [compound 171]
ELISPOT result (positive Yes/No) for peptides marked Tested [1]: No

RTLLVTCILY [compound 125]
Elispot reactive [6]: No

RTRSAWGDW [compound 141]
ELISPOT result (positive Yes/No) for peptides marked Tested [1]: No

RVPAHASTSI
Elispot reactive [3]: yes

RVPAHASTSL [compound 27]
Elispot reactive [4]: Yes
Elispot reactive [6]: Yes
Elispot reactive [5]: Yes

RWMVLRNSWRAVARM
Elispot reactive [3]: yes

SELLNPVTMNK [compound 205]
Elispot reactive (IFNγ ELISpot, peptide tested): No

SINVLCVRASLIEKL
Elispot reactive [2]: yes

SLINLTWTA
Elispot reactive [3]: yes

SLINLTWTA [compound 66]
ELISPOT result for peptides marked Tested with ELISPOT (Yes/No) [1]: No

SLVRLSSCVPV [compound 4]
Elispot reactive (IFNγ ELISpot, peptide tested): No

SLWSSMPHGV [compound 23]
Elispot reactive [4]: Yes
Elispot reactive [5]: Yes

SMAASPSPK [compound 179]
ELISPOT result (positive Yes/No) for peptides marked Tested [1]: No

SMMPPPPAL [compound 2]
Elispot reactive (IFNγ ELISpot, peptide tested): No

SPAIPPRPL
Elispot reactive [3]: yes

SPAIPPRPL [compound 7]
Elispot reactive (IFNγ ELISpot, peptide tested): No

SPMITRIL [compound 210]
Elispot reactive (IFNγ ELISpot, peptide tested): No

SPPLHLCQPL [compound 95]
ELISPOT result (positive Yes/No) for peptides marked Tested [1]: No
ELISPOT result for peptides marked Tested with ELISPOT (Yes/No) [1]: No

SPSRSTTAPV [compound 134]
ELISPOT result (positive Yes/No) for peptides marked Tested [1]: No

SQKNITPAI [compound 122]
Elispot reactive [6]: No

SQNWGSLPL [compound 164]
ELISPOT result (positive Yes/No) for peptides marked Tested [1]: No

SQVWTAATLR [compound 115]
Elispot reactive [6]: No

SWMGGLHSFY [compound 121]
Elispot reactive [6]: No

TAPVASASPKL [compound 17]
Elispot reactive (IFNγ ELISpot, peptide tested): No

TPMHSLLIS [compound 212]
Elispot reactive (IFNγ ELISpot, peptide tested): No

TPMHSLLISPM [compound 211]
Elispot reactive (IFNγ ELISpot, peptide tested): No

TPQDSRQVL [compound 117]
Elispot reactive [6]: No

TPRKLVGRAV [compound 162]
ELISPOT result (positive Yes/No) for peptides marked Tested [1]: No

TQLARFFPI
Elispot reactive [3]: yes

TQLARFFPI [compound 24]
experimental validation of the neoAg, Yes/NA: Yes
Elispot reactive [4]: Yes
Elispot reactive [6]: Yes
Elispot reactive [5]: Yes

TSSPRTMSW [compound 120]
Elispot reactive [6]: No

VGMRETTGL [compound 119]
Elispot reactive [6]: No

VLEDTLLKI
Elispot reactive [3]: yes

VLEDTLLKI [compound 158]
ELISPOT result (positive Yes/No) for peptides marked Tested [1]: Yes
Elispot reactive [5]: Yes

VMANVLTLNL
Elispot reactive [3]: yes

VMANVLTLNL [compound 157]
ELISPOT result (positive Yes/No) for peptides marked Tested [1]: Yes
Elispot reactive [5]: Yes

VPACSHVPM [compound 202]
Elispot reactive (IFNγ ELISpot, peptide tested): No

VPTWSARLL [compound 203]
Elispot reactive (IFNγ ELISpot, peptide tested): No

VSNIAQAPLY [compound 172]
ELISPOT result (positive Yes/No) for peptides marked Tested [1]: No

VVHKKRGLF [compound 127]
Elispot reactive [6]: No

WLPKMPPFV
Elispot reactive [3]: yes

WLPKMPPFV [compound 163]
ELISPOT result (positive Yes/No) for peptides marked Tested [1]: Yes
Elispot reactive [5]: Yes

WSWCGTSQTY [compound 136]
ELISPOT result (positive Yes/No) for peptides marked Tested [1]: Yes
Elispot reactive [5]: Yes

YLFAKAYLV [compound 201]
Elispot reactive (IFNγ ELISpot, peptide tested): No

YLGTPTWNC
Elispot reactive [3]: yes

YLGTPTWNC [compound 151]
ELISPOT result (positive Yes/No) for peptides marked Tested [1]: Yes
Elispot reactive [5]: Yes

YMMDDLELI [compound 1]
Elispot reactive [4]: No

YVAIRPLPY [compound 173]
ELISPOT result (positive Yes/No) for peptides marked Tested [1]: No
